Measured values taken from ChEMBL document CHEMBL3045407, “Synthesis and antimicrobial activity of pyrazolinones and pyrazoles having benzothiazole moiety” (2012).
≈ marks a conversion by molar mass, not a printed value.

Legend:
Assay type in all cases: functional
Candida albicans = assay: Antimicrobial activity against Candida albicans ATCC 90028 by serial plate dilution method
Aspergillus niger = assay: Antimicrobial activity against Aspergillus niger ATCC 9029 by serial plate dilution method
Escherichia coli = assay: Antimicrobial activity against Escherichia coli ATCC 25922 by serial plate dilution method
Staphylococcus aureus = assay: Antimicrobial activity against Staphylococcus aureus ATCC 25923 by serial plate dilution method

COc1ccc(N/N=C2/C(=O)N(c3nc4ccc(Cl)cc4s3)N=C2C)cc1 gave an MIC (Candida albicans) of 251 µM (≈ 100 µg/mL), an MIC (Aspergillus niger) of 501 µM (≈ 200 µg/mL) and an MIC (Escherichia coli) of 251 µM (≈ 100 µg/mL). The MIC (Staphylococcus aureus) was 125 µM (≈ 50.1 µg/mL).
For NNc1nc2ccc(Cl)cc2s1, the MIC (Candida albicans) was 501 µM (≈ 100 µg/mL), the MIC (Aspergillus niger) was 1000 µM (≈ 200 µg/mL) and the MIC (Escherichia coli) was 501 µM (≈ 100 µg/mL). For the same compound, the MIC (Staphylococcus aureus) was 250 µM (≈ 50 µg/mL).
CC1=NN(c2nc3ccc(Cl)cc3s2)C(=O)/C1=N/Nc1ccccc1Cl gave an MIC (Candida albicans) of 248 µM (≈ 100 µg/mL), an MIC (Aspergillus niger) of 248 µM (≈ 100 µg/mL) and an MIC (Escherichia coli) of 124 µM (≈ 50.2 µg/mL). It also gave an MIC (Staphylococcus aureus) of 62 µM (≈ 25.1 µg/mL).
With Cc1ccc(/N=N/c2c(C)nn(-c3nc4ccc(Cl)cc4s3)c2C)cc1 the MIC (Candida albicans) was 131 µM (≈ 50.1 µg/mL), the MIC (Aspergillus niger) was 262 µM (≈ 100 µg/mL) and the MIC (Escherichia coli) was 65.6 µM (≈ 25.1 µg/mL). It also gave an MIC (Staphylococcus aureus) of 131 µM (≈ 50.1 µg/mL).
In the case of CC1=NN(c2nc3ccc(Cl)cc3s2)C(=O)/C1=N/Nc1ccc(F)cc1, the MIC (Candida albicans) is reported as 64.6 µM (≈ 25 µg/mL), the MIC (Aspergillus niger) is reported as 129 µM (≈ 50.1 µg/mL) and the MIC (Escherichia coli) is reported as 129 µM (≈ 50.1 µg/mL). The MIC (Staphylococcus aureus) was 32.3 µM (≈ 12.5 µg/mL).
In the case of Cc1nn(-c2nc3ccc(Cl)cc3s2)c(C)c1/N=N/c1ccccc1O, the MIC (Candida albicans) is reported as 261 µM (≈ 100 µg/mL), the MIC (Aspergillus niger) is reported as 522 µM (≈ 200 µg/mL) and the MIC (Escherichia coli) is reported as 522 µM (≈ 200 µg/mL). The MIC (Staphylococcus aureus) was 522 µM (≈ 200 µg/mL).
For Cc1nn(-c2nc3ccc(Cl)cc3s2)c(C)c1/N=N/c1ccc(F)cc1, the MIC (Candida albicans) was 260 µM (≈ 100 µg/mL), the MIC (Aspergillus niger) was 130 µM (≈ 50.1 µg/mL) and the MIC (Escherichia coli) was 32.5 µM (≈ 12.5 µg/mL). The MIC (Staphylococcus aureus) was 64.9 µM (≈ 25.1 µg/mL).
For CC1=NN(c2nc3ccc(Cl)cc3s2)C(=O)/C1=N/Nc1ccc(Cl)cc1, the MIC (Candida albicans) was 124 µM (≈ 50.1 µg/mL), the MIC (Aspergillus niger) was 124 µM (≈ 50.1 µg/mL) and the MIC (Escherichia coli) was 62 µM (≈ 25.1 µg/mL). For the same compound, the MIC (Staphylococcus aureus) was 31 µM (≈ 12.5 µg/mL).
Compound Cc1nn(-c2nc3ccc(Cl)cc3s2)c(C)c1/N=N/c1ccc(Cl)cc1 has an MIC (Candida albicans) of 249 µM (≈ 100 µg/mL), an MIC (Aspergillus niger) of 31.2 µM (≈ 12.5 µg/mL) and an MIC (Escherichia coli) of 125 µM (≈ 50.2 µg/mL). It also gave an MIC (Staphylococcus aureus) of 15.6 µM (≈ 6.27 µg/mL).
Work on Cc1nn(-c2nc3ccc(Cl)cc3s2)c(C)c1/N=N/c1ccccc1C(=O)O yielded an MIC (Candida albicans) of 243 µM (≈ 100 µg/mL), an MIC (Aspergillus niger) of 122 µM (≈ 50.1 µg/mL) and an MIC (Escherichia coli) of 487 µM (≈ 200 µg/mL). For the same compound, the MIC (Staphylococcus aureus) was 122 µM (≈ 50.1 µg/mL).
In the case of CC1=NN(c2nc3ccc(Cl)cc3s2)C(=O)/C1=N/Nc1ccc(C)cc1, the MIC (Candida albicans) is reported as 522 µM (≈ 200 µg/mL), the MIC (Aspergillus niger) is reported as 261 µM (≈ 100 µg/mL) and the MIC (Escherichia coli) is reported as 131 µM (≈ 50.1 µg/mL). The MIC (Staphylococcus aureus) was 65.3 µM (≈ 25.1 µg/mL).
In the case of COc1ccc(/N=N/c2c(C)nn(-c3nc4ccc(Cl)cc4s3)c2C)cc1, the MIC (Candida albicans) is reported as 63 µM (≈ 25.1 µg/mL), the MIC (Aspergillus niger) is reported as 504 µM (≈ 200 µg/mL) and the MIC (Escherichia coli) is reported as 252 µM (≈ 100 µg/mL). For the same compound, the MIC (Staphylococcus aureus) was 252 µM (≈ 100 µg/mL).
CC1=NN(c2nc3ccc(Cl)cc3s2)C(=O)/C1=N/Nc1ccc(Br)cc1 showed an MIC (Candida albicans) of 112 µM (≈ 50.1 µg/mL), an MIC (Aspergillus niger) of 223 µM (≈ 100 µg/mL) and an MIC (Escherichia coli) of 112 µM (≈ 50.1 µg/mL). It also gave an MIC (Staphylococcus aureus) of 13.9 µM (≈ 6.26 µg/mL).
Cc1nn(-c2nc3ccc(Cl)cc3s2)c(C)c1/N=N/c1ccccc1Cl was tested, and the MIC (Candida albicans) was 125 µM (≈ 50.2 µg/mL), the MIC (Aspergillus niger) was 125 µM (≈ 50.2 µg/mL) and the MIC (Escherichia coli) was 249 µM (≈ 100 µg/mL). It also gave an MIC (Staphylococcus aureus) of 499 µM (≈ 201 µg/mL).
In the case of CC1=NN(c2nc3ccc(Cl)cc3s2)C(=O)/C1=N/Nc1ccc(C(=O)O)cc1, the MIC (Candida albicans) is reported as 242 µM (≈ 100 µg/mL), the MIC (Aspergillus niger) is reported as 484 µM (≈ 200 µg/mL) and the MIC (Escherichia coli) is reported as 242 µM (≈ 100 µg/mL). The MIC (Staphylococcus aureus) was 121 µM (≈ 50.1 µg/mL).
Compound CC1=NN(c2nc3ccc(Cl)cc3s2)C(=O)/C1=N/Nc1ccccc1C has an MIC (Candida albicans) of 522 µM (≈ 200 µg/mL), an MIC (Aspergillus niger) of 261 µM (≈ 100 µg/mL) and an MIC (Escherichia coli) of 261 µM (≈ 100 µg/mL). It also gave an MIC (Staphylococcus aureus) of 131 µM (≈ 50.1 µg/mL).
CC1=NN(c2nc3ccc(Cl)cc3s2)C(=O)/C1=N/Nc1ccccc1C(=O)O gave an MIC (Candida albicans) of 121 µM (≈ 50.1 µg/mL), an MIC (Aspergillus niger) of 484 µM (≈ 200 µg/mL) and an MIC (Escherichia coli) of 484 µM (≈ 200 µg/mL). For the same compound, the MIC (Staphylococcus aureus) was 242 µM (≈ 100 µg/mL).
Cc1nn(-c2nc3ccc(Cl)cc3s2)c(C)c1/N=N/c1ccc(C(=O)O)cc1 showed an MIC (Candida albicans) of 243 µM (≈ 100 µg/mL), an MIC (Aspergillus niger) of 243 µM (≈ 100 µg/mL) and an MIC (Escherichia coli) of 243 µM (≈ 100 µg/mL). The MIC (Staphylococcus aureus) was 122 µM (≈ 50.1 µg/mL).
Cc1nn(-c2nc3ccc(Cl)cc3s2)c(C)c1/N=N/c1ccc(Br)cc1 showed an MIC (Candida albicans) of 112 µM (≈ 50.1 µg/mL), an MIC (Aspergillus niger) of 56 µM (≈ 25 µg/mL) and an MIC (Escherichia coli) of 112 µM (≈ 50.1 µg/mL). For the same compound, the MIC (Staphylococcus aureus) was 112 µM (≈ 50.1 µg/mL).
For Cc1ccccc1/N=N/c1c(C)nn(-c2nc3ccc(Cl)cc3s2)c1C, the MIC (Candida albicans) was 262 µM (≈ 100 µg/mL), the MIC (Aspergillus niger) was 525 µM (≈ 200 µg/mL) and the MIC (Escherichia coli) was 262 µM (≈ 100 µg/mL). The MIC (Staphylococcus aureus) was 262 µM (≈ 100 µg/mL).
CC(=O)N1CCN(c2ccc(OCC3COC(Cn4ccnc4)(c4ccc(Cl)cc4Cl)O3)cc2)CC1 (stereo unspecified) [KETOCONAZOLE] gave an MIC (Candida albicans) of 5.88 µM (≈ 3.12 µg/mL) and an MIC (Aspergillus niger) of 11.8 µM (≈ 6.25 µg/mL).
CC1=NN(c2nc3ccc(Cl)cc3s2)C(=O)/C1=N/Nc1ccccc1O was tested, and the MIC (Candida albicans) was 260 µM (≈ 100 µg/mL), the MIC (Aspergillus niger) was 519 µM (≈ 200 µg/mL) and the MIC (Escherichia coli) was 260 µM (≈ 100 µg/mL). The MIC (Staphylococcus aureus) was 130 µM (≈ 50.1 µg/mL).
